From publication PMC4332989 (Cellular signalling, 2014)
Where two headings read alike, the source gives them in different places.

Tests used:
CB1R [1] = target: T1, CB1R (Mus musculus, UniProt P47746); assay type: cell-based; details: for agonist-stimulated maximal ERK1/2 phosphorylation: 5 min (Fig. 4B); for stimulated ERK1/2 phosphorylation: 5 min (Fig. 5B); for agonist-stimulated enhancement in phosphoERK1/2 levels: over basal (Fig. 4)
CB1R coupling to Gαo = CB1R coupling to Gαo (Mus musculus, UniProt P47746); details: 100 nM
CB1R coupling to Gαi2 = CB1R coupling to Gαi2 (Mus musculus, UniProt P47746); details: 100 nM
CB1R coupling to Gαi3 = CB1R coupling to Gαi3 (Mus musculus, UniProt P47746); details: 100 nM
CB1R coupling to Gαi1 = CB1R coupling to Gαi1 (Mus musculus, UniProt P47746); details: 100 nM
CB1R [2] = target: T1, CB1R; experiment: cell-based; details: for EC50: EC50, inhibition of forskolin-stimulated cAMP accumulation, 1 μM forskolin
CB1R [3] = experiment: On-cell-Western CB1R cell surface density in N18TG2 clones; assay type: cell-based, mouse
[4] = WT, Control or CRIP1a KD membranes

T1 sequence (P47746 whole entry): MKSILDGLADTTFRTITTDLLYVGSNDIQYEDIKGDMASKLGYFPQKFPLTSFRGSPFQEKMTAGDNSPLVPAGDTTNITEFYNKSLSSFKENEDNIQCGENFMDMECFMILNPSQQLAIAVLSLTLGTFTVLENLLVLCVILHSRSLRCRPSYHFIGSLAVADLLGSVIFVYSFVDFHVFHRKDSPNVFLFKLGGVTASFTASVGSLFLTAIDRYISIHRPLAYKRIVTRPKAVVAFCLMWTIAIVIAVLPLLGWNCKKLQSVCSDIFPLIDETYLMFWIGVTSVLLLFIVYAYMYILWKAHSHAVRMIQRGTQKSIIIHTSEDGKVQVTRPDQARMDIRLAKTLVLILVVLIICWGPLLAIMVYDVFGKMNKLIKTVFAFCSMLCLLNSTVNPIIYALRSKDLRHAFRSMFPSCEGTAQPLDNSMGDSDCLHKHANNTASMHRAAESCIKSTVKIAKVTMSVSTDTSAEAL
Chain of CB1R coupling to Gαo (P47746 whole entry): as above
Chain of CB1R coupling to Gαi3 (P47746 whole entry): as above
Chain of CB1R coupling to Gαi1 (P47746 whole entry): as above
Chain of CB1R coupling to Gαi2 (P47746 whole entry): as above

CCCCCCC(C)(C)c1ccc([C@@H]2C[C@H](O)CC[C@H]2CCCO)c(O)c1 [CP55940, (−)-cis-3-[2-Hydroxy-4-(1,1-dimethyl-heptyl)phenyl]-trans-4-(3-hydroxypropyl)cyclohexanol]
agonist-stimulated maximal ERK1/2 phosphorylation (CB1R [1]; CRIP1a KD2C cells, 10 nM): 63±8%
agonist-stimulated maximal ERK1/2 phosphorylation (CB1R [1]; CRIP1a KD2F cells, 10 nM): 59±4%
stimulated ERK1/2 phosphorylation (CB1R [1]; KD2C cells, 10 nM): 68±4%
stimulated ERK1/2 phosphorylation (CB1R [1]; KD2C cells, 100 nM): 58±5%
stimulated ERK1/2 phosphorylation (CB1R [1]; KD2F cells, 10 nM): 73±5%
stimulated ERK1/2 phosphorylation (CB1R [1]; KD2F cells, 100 nM): 62±6%
agonist-stimulated enhancement in phosphoERK1/2 levels (CB1R [1]; N18TG2 WT cells, 10 nM, 5 min): 45±6%
time of rapid increase in phosphoERK1/2 levels (CB1R [1]; WT, CRIP1a-XS and KD cells, 10 nM): ≤ 5 min
enhancement in [35S]GTPγS binding to Gαo (CB1R coupling to Gαo; CRIP1a KD membranes): 79±21 % over basal
enhancement in [35S]GTPγS binding to Gαo (CB1R coupling to Gαo; CRIP1a XS membranes): 4±3 % over basal
enhancement in [35S]GTPγS binding to Gαo (CB1R coupling to Gαo; WT membranes): 49±9 % over basal
stimulation of [35S]GTPγS binding to Gαi2 (CB1R coupling to Gαi2; CRIP1a XS membranes): 753±316 % above basal
binding of Gαi2 to CB1R following treatment (CB1R coupling to Gαi2; [4]): no differences
stimulated [35S]GTPγS binding to Gαi3 (CB1R coupling to Gαi3; CRIP1a KD membranes): 103±22 % over basal
stimulated [35S]GTPγS binding to Gαi3 (CB1R coupling to Gαi3; CRIP1a XS membranes): 10±12 % over basal
stimulated [35S]GTPγS binding to Gαi3 (CB1R coupling to Gαi3; Control clone membranes): 62±21 % over basal
stimulated [35S]GTPγS binding to Gαi3 (CB1R coupling to Gαi3; WT membranes): 79±18 % over basal
stimulation of [35S]GTPγS binding to Gαi1 (CB1R coupling to Gαi1; CRIP1a XS membranes): 128±54 % above basal
binding of Gαi1 to CB1R following treatment (CB1R coupling to Gαi1; [4]): no differences
EC50 (CB1R [2]; CRIP1a KD cells, 4 min): 0.2 nM
EC50 (CB1R [2]; CRIP1a over-expression (XS) cells, 4 min): 1.6 nM
EC50 (CB1R [2]; N18TG2 WT cells, 4 min): 3.4 nM

O=C(NN=Cc1ccc(O)c(O)c1)c1cc2ccccc2cc1O [Dynasore, 3-Hydroxynaphthalene-2-carboxylic acid (3,4-dihydroxybenzylidene)hydrazide]
effect on CP55940-stimulated phosphorylation of ERK1/2 (CB1R [1]; WT, CRIP1a-XS and KD clones, Dynasore 80 μM, 30 min preincubation, CP55940 10 nM): completely blocked

CCCCCCCCCCC[C@@H](C[C@@H]1OC(=O)[C@H]1CCCCCC)OC(=O)[C@H](CC(C)C)NC=O [THL, tetrahydrolipstatin]
effect on total or cell surface levels of CB1R (CB1R [3]; THL pretreatment 1 μM, 2 h (data not shown)): did not change

Cc1c(C(=O)c2cccc3ccccc23)c2cccc3c2n1C(CN1CCOCC1)CO3 (stereo not drawn) [WIN55212-2, [2,3-dihydro-5-methyl-3-[(4-morpholinyl)methyl]pyrrolo[1,2,3-de]-1,4-benzoxazin-6-yl](1-naphthyl)methanone]
agonist-stimulated enhancement in phosphoERK1/2 levels (CB1R [1]; N18TG2 WT cells, 10 nM, 5 min): 36±5%

C[C@@H]1C[C@@H]([C@H](O)CC2CC(=O)NC(=O)C2)C(=O)[C@@H](C)C1 [cycloheximide]
effect on CB1R plasma membrane density (CB1R [3]; CRIP1a XS or KD cells, 50 μM, 2 h pre-treatment (data not shown)): failed to alter

C=C[C@@]1(C)CC(=O)[C@]2(O)[C@@]3(C)[C@@H](O)CCC(C)(C)[C@@H]3[C@H](O)[C@H](OC(C)=O)[C@@]2(C)O1 [forskolin]
stimulation of cAMP accumulation over vehicle (CB1R [2]; 1 μM, 4 min, WT, Control, CRIP1a XS, CRIP1a KD): to the same extent in all cell lines tested

CCCCC/C=C\C/C=C\C/C=C\C/C=C\CCCC(=O)N[C@H](C)CO [mAEA, (R)-N-(2-Hydroxy-1-methylethyl)-5Z,8Z,11Z,14Z-eicosatetraenamide]
ERK phosphorylation as share of the response observed with a CB1R full agonist (CB1R [1]; N18TG2 WT cells, 10 nM, 5 min): ~ 30%
agonist-stimulated enhancement in phosphoERK1/2 levels (CB1R [1]; N18TG2 WT cells, 10 nM, 5 min): 12±2%
effect on cAMP accumulation (CB1R [2]; all clones, not altered by differences in the expression of CRIP1a (Fig. 7B)): concentration-dependent attenuation
